Experimental data from patent US20050197331A1, “Novel anti-inflammatory and analgesic heterocyclic amidines that inhibit nitrogen oxide (NO) production” (ROTTAPHARM SPA, priority 2004, published 2005).
Counter-ions that a name gives are not always drawn. Like-named read-outs stand apart in the source and are kept apart here.

Assays:
[1] = tested on: PGE2; test: Inhibition of PGE2 formation in rabbit articular chondrocytes stimulated with IL-1β (RIA); type: cell-based
Description: (§1) a) The inhibitory activity on the formation of NO measured as NO2^− (nitrite) and PGE2 was studied in vitro on culture media of rabbit articular chondrocytes stimulated with the cytokine IL-1β (1 ng/ml) for 48 hours. For the preparation of the chondrocytes, the method described by Berenbaum et al. [FEBS Letters 340, 51-55 (1994)] was followed. Briefly, fragments of cartilage removed aseptically from the articular heads of rabbit shoulder, hip and knee were finely ground and digested at 37° C. in hyaluronidase, trypsin and collagenase solutions, giving, after filtration through sterile gauze and centrifugation at 600×g and suitable dilution with 10% DMEM-FCS 10%, a concentration per well of about 1×10^5 cells. The cells were maintained under these conditions until confluent (about 15 days), the medium being replaced every 3 days. At this point, the test products dissolved in the medium were added to each sample and, after 20 minutes, 350 μl of IL-1β were added, to give a final concentration of 1 ng/ml. The stimulation lasted 48 hours at 37° C. (incubation in air/7% CO2). A nitrite assay was subsequently performed on the cell supernatant, as described by Green et al. [Anal. Biochem. 126, 131-138 (1982)], and of PGE2 by RIA assay. The results obtained are shown in Table 3, in which is given, for a number of the compounds that are the subject of the invention and that are already illustrated in Table 1, the IC50, i.e. the concentration (micromolar) of antagonist capable of inhibiting the formation of nitrites and PGE2 by 50% relative to the control group, i.e. relative to the cells stimulated with IL-1β but without addition of antagonists.

[2] = tested on: rat paw injected with Zymosan; test: Zymosan-induced mechanical hyperalgesia in rats (Randall-Selitto); type: in vivo; details: os, 0-6 hours, dose increasing pain threshold by 30%
Description: (§2) This is a phlogogenic agent, consisting of a protein-glycoside complex, extracted from the cell walls of raw yeast, which is capable of inducing rapid degranulation of neutrophils, an increase in the production of TNF-α, interleukin-1 (IL-1), IL-6 and stimulation of NO generation by monocytes and macrophages (ZymosaN:Merck Index XIII ed. No. 10250, p. 1818).
(§3) The experiments consisted of sub-plantar intradermal injection into the animal of 4 mg of Zymosan suspended in 100 μl of sterile physiological solution, while the test compounds were administered orally 30 minutes before injection of the phlogogenic agent.
(§4) Measurement of the inflammation of the injected paw and of the consequent hyperalgesic effects was performed 2, 4 and 6 hours after the administration of Zymosan. The oedema was evaluated as the increase in volume of the injected paw within the period 0-6 hours, relative to the initial value of the volume of the paw, i.e. before the injection of Zymosan (basal value).
The hyperalgesia induced by the intradermal administration of Zymosan was evaluated on these animals and at the same times described previously for the evaluation of the oedema, using the Randall-Selitto method [Arch. Int. Pharmacodyn. 111, 409 (1957)].
When the animal makes a noise following the pain stimulus, the operator blocks the punch and records the force, expressed in grams, which was applied to the paw (the cut-off value is 500 grams). The difference in the meal chanical pain threshold between the basal value (generally about 230-250 grams) and that recorded at the indicated times after injection of the phlogogenic agent, generally 130-140 g for the control animals 6 hours after injection of the phlogogenic agent, is defined as mechanical hyperalgesia. In this case also, an ED30 was calculated, i.e. the dose in mg/kg capable of increasing the pain threshold by 30% (meal chanical hyperalgesia) in the animals treated with the test compounds relative to the group of control animals.

[3] = tested on: rat paw injected with Zymosan; test: Zymosan-induced paw oedema in rats; type: in vivo; details: for Anti-inflammatory activity (oedema) ED30 / Mean (Oedema + Analgesia) ED30: os, 0-6 hours; for Anti-inflammatory activity (oedema) ED30: dose reducing volume increase by 30%; for Mean (Oedema + Analgesia) ED30: mean of oedema and analgesia ED30
Description: as §2, §3, §4
The measurements of the variation of the volume of the paw were recorded using a hydroplethysmometer (Mod. 7150, Basile, Italy), which consists of two plastic cuvettes containing a surfactant liquid, the larger one being used for immersion of the paw, connected to the smaller one which contains a transducer capable of recording small displacements of volume of the liquid used for the measurement. The paw is immersed in the cuvettes up to the tibiotarsal joint. The volume of liquid displaced by the paw indicates the magnitude of the inflammation.
For each test compound, at least three doses were used (generally 10, 20 and 40 mg/kg) with at least five animals per group×dose, so as to be able to calculate an ED30, i.e. the dose in mg/kg capable of reducing by 30% the Zymosan-induced volume increase, relative to the group of control animals, i.e. animals injected only with the phlogogenic agent and treated orally with distilled water.

[4] = tested on: formation of NO measured as NO2^− (nitrite); test: Inhibition of NO (nitrite) formation in rabbit articular chondrocytes stimulated with IL-1β; type: cell-based
Description: as §1

[5] = Oryctolagus cuniculus, Chondrocyte, rabbit articular chondrocytes, IL-1β 1 ng/ml, 48 hours, RIA, read-out: Inhibition % IC50 PGE2
[6] = rabbit articular chondrocytes stimulated with IL-1β
[7] = Oryctolagus cuniculus, Chondrocyte, rabbit articular chondrocytes stimulated with IL-1β, read-out: IC50, production of NO
[8] = Oryctolagus cuniculus, Chondrocyte, rabbit articular chondrocytes, IL-1β 1 ng/ml, 48 hours, nitrite in supernatant, read-out: Inhibition % IC50 NO
[9] = Oryctolagus cuniculus, Chondrocyte, rabbit articular chondrocytes stimulated with IL-1β, read-out: IC50, formation of PGE2
[10] = rabbit articular chondrocytes, IL-1β 1 ng/ml, 48 hours, RIA

Compound | IC50 [1, 5] | IC50 [4, 8] | melting point | further results
Cc1ccc(-c2cc(C(F)(F)F)nn2-c2ccc(S(N)(=O)=O)cc2)cc1 [Celecoxib, reference compound] | 0.02 µM |  |  | Analgesic activity (mechanical anti-hyperalgesia) ED30 [2]: 69.2 mg/kg; Anti-inflammatory activity (oedema) ED30 [3]: 79.4 mg/kg; Mean (Oedema + Analgesia) ED30 [3]: 74.3 mg/kg; inhibiting the production of NO (in words) [4, 6]: entirely inactive
CCCCCc1nc2ccc(NC(C)=N)cc2s1 [Compound 4, N-(2-pentylbenzothiazol-6-yl)acetamidine] | 6.6 µM | 6.9 µM | 112.6 to 114.7 °C | IC50 [4, 7]: 3 to 8 µM
CC(=N)Nc1ccc2sc(Cc3ccccc3)nc2c1 [Compound 11, N-[2-benzylbenzothiazol-5-yl]acetamidine] | 7.4 µM | 15 µM | 117.9 to 120 °C | 
CC(=N)Nc1ccc2sc(/C=C/c3ccccc3)nc2c1 [Compound 12, N-[2-styrylbenzothiazol-5-yl]acetamidine] | 1.3 µM | 88.9 µM | 90.8 to 91.8 °C | IC50, formation of PGE2 [1, 6]: sub-micromolar; inhibiting the production of NO (in words) [4, 6]: little activity
CC(=N)Nc1ccc2[nH]c(-c3ccc(F)cc3)nc2c1 [Compound 19, N-[2-(4-fluorophenyl)benzimidazol-5-yl]acetamidine dihydrochloride] | 0.7 µM | 78 µM |  | IC50 [1, 9]: 0.3 to 0.8 µM; IC50, formation of PGE2 [1, 6]: sub-micromolar; inhibiting the production of NO (in words) [4, 6]: little activity
CC(=N)Nc1ccc2[nH]c(-c3ccc(Cl)cc3)nc2c1 [Compound 20, N-[2-(4-chlorophenyl)benzimidazol-5-yl]acetamidine] | 0.4 µM | 22.8 µM | 153.6 to 156 °C | IC50 [1, 9]: 0.3 to 0.8 µM; IC50, formation of PGE2 [1, 6]: sub-micromolar; inhibiting the production of NO (in words) [4, 6]: little activity
CC(=N)Nc1ccc2[nH]c(-c3ccccc3)nc2c1 [Compound 21, N-(2-phenyl-3H-benzimidazol-5-yl)acetamidine hydrochloride] | 0.8 µM | 84.5 µM |  | IC50 [1, 9]: 0.3 to 0.8 µM; IC50, formation of PGE2 [1, 6]: sub-micromolar; inhibiting the production of NO (in words) [4, 6]: little activity
CCCCCc1nc2ccc(NC(C)=N)cc2[nH]1 [Compound 22, N-(2-pentyl-3H-benzimidazol-5-yl)acetamidine dihydrochloride] | 31.5 µM | 123 µM |  | 
CC(=N)Nc1ccc2[nH]c(-c3ccc[nH]3)nc2c1 [Compound 23, N-[2-(pyrrol-2-yl)-3H-benzimidazol-5-yl]acetamidine dihydrochloride] | 2 µM | 250 µM |  | 
COC(=O)c1ccc(-c2nc3cc(NC(C)=N)ccc3[nH]2)cc1 [Compound 25, Methyl 4-(5-acetimidoylamino-1H-benzimidazol-2-yl)benzoate hydrochloride] |  | 174 µM |  | Inhibition % IC50 PGE2 [1, 10]: IN (IN = <25% inhibitory activity at 30 × 10^−6M)
CC(=N)Nc1ccc2[nH]c(-c3ccc(C(=O)O)cc3)nc2c1 [Compound 26, 4-(5-acetimidoylamino-1H-benzimidazol-2-yl)benzoic acid] |  |  | 271.5 to 274.3 °C | Inhibition % IC50 PGE2 [1, 10]: IN (IN = <25% inhibitory activity at 30 × 10^−6M)
CC(=N)Nc1ccc2oc(-c3cccc(C(F)(F)F)c3)nc2c1 [Compound 31, N-[2-(3-trifluromethylphenyl)benzoxazol-5-yl]acetamidine] | 2.9 µM | 11.2 µM | 157.9 to 159.2 °C | 
CC(=N)Nc1ccc2oc(-c3ccc(C(F)(F)F)cc3)nc2c1 [Compound 32, N-[2-(4-trifluromethylphenyl)benzoxazol-5-yl]acetamidine] | 0.6 µM | 8.1 µM | 179.2 to 181 °C | 
CC(=N)Nc1ccc2oc(-c3ccccc3F)nc2c1 [Compound 33, N-[2-(2-fluorophenyl)benzoxazol-5-yl]acetamidine] | 13.8 µM | 47 µM | 157.9 to 159.2 °C | 
CC(=N)Nc1ccc2oc(-c3ccc(Cl)c(Cl)c3)nc2c1 [Compound 34, N-[2-(3,4-dichlorophenyl)benzoxazol-5-yl]acetamidine] | 0.4 µM | 4.3 µM | 182 to 184 °C | IC50 [1, 9]: 0.3 to 0.8 µM; IC50 [4, 7]: 3 to 8 µM
CC(=N)Nc1ccc2[nH]c(-c3ccc(Cl)c(Cl)c3)nc2c1 [Compound 35, N-[2-(3,4-dichlorophenyl)benzimidazol-5-yl]acetamidine] | 0.4 µM |  | 207.4 to 209 °C | IC50 [1, 9]: 0.3 to 0.8 µM; IC50, formation of PGE2 [1, 6]: sub-micromolar; inhibiting the production of NO (in words) [4, 6]: little activity
COc1ccccc1-c1nc2cc(NC(C)=N)ccc2[nH]1 [Compound 37] | 2.8 µM | 32.1 µM | 190.5 to 192.8 °C | 
CC(=N)Nc1ccc2[nH]c(-c3ccccc3C)nc2c1 [Compound 39, N-[2-(2-methylphenyl)benzimidazol-5-yl]acetamidine] | 9.9 µM | 199 µM | 154 to 158 °C | 
CC(=N)Nc1ccc2sc(-c3ccc[nH]3)nc2c1 [Compound 40, N-[2-(pyrrol-2-yl)benzothiazol-5-yl]acetamidine] | 8.4 µM |  | 166.7 to 169.1 °C | 
CC(=N)Nc1ccc2nc(-c3ccccc3)oc2c1 [Compound 42, N-(2-phenylbenzoxazol-6-yl)acetamidine] | 5.1 µM | 42.9 µM | 176.3 to 177.8 °C | 
COC(=O)[C@@H](N)CCCNC(=N)N[N+](=O)[O-] [L-NAME, N^G-nitro-L-arginine methyl ester, reference compound] |  |  |  | Inhibition % IC50 PGE2 [1, 10]: IN (IN = <25% inhibitory activity at 30 × 10^−6M); Analgesic activity (mechanical anti-hyperalgesia) ED30 [2]: IN (the compound L-NAME was entirely inactive up to the maximum dose administered (50 mg/kg)); anti-inflammatory and anti-hyperalgesic action (in words) ([3]; Zymosan, administered orally, L-NAME up to maximum dose 50 mg/kg, 50 mg/kg): inactive; Anti-inflammatory activity (oedema) ED30 [3]: IN (the compound L-NAME was entirely inactive up to the maximum dose administered (50 mg/kg)); Mean (Oedema + Analgesia) ED30 [3]: IN (the compound L-NAME was entirely inactive up to the maximum dose administered (50 mg/kg)); activity on NO production, fold less powerful than the best compounds of the invention [4, 6]: about 10 fold; IC50 ([4]; rabbit articular chondrocytes stimulated with IL-1β, read-out: IC50, production of NO): 71 µM
N-[2-phenylbenzothiazol-5-yl]cyclopropylcarboxamidine [Compound 41] |  |  |  | IC50 ([1]; rabbit articular chondrocytes, IL-1β 1 ng/ml, 48 hours, RIA, read-out: Inhibition % IC50 PGE2): 4 µM; Inhibition % IC50 NO ([4]; rabbit articular chondrocytes, IL-1β 1 ng/ml, 48 hours, nitrite in supernatant): IN (IN = <25% inhibitory activity at 30 × 10^−6M)
